Here are results for 2 compounds from patent publication US7432269B2, “Arylpiperaszine derivatives, to the process for the production thereof and to the use thereof as therapeutic agents” (Bioprojet, priority 2004, dated 2008).

Structures can show the parent of a compound that is named as a salt.

For test [1], the target named is T1, human D3 dopamine receptor (hD3) (Homo sapiens, UniProt P35462).
T1 construct: expressed in transfected cells; host or cells: CHO cells
In words: [3H]spiperone binding to human D3 dopamine receptor (transfected CHO cell membranes). Particulars: CHO cells transfected with hD3. The procedure: CHO cells were transfected with the gene coding for the human D3 dopamine receptor (hD3). [^3H]spiperone binding (0.5 to 2 nM) is performed in the presence of 5 to 10 μg of membrane proteins in a medium containing 120 mM of NaCl, 5 mM of KCl, and 50 mM of Tris-HCl pH 7.4; incubation of 60 minutes at ambient temperature is necessary. Non-specific binding is estimated in the presence of 5 μM of haloperidol. Non-transfected cells have absolutely no binding activity.

In test [2] the test system is human alpha-1 adrenergic receptor (hα1). In words: [3H]prasozin binding to human alpha-1 adrenergic receptor (transfected HEK 293 cell membranes). Particulars: HEK 293 cells transfected with hα1. The procedure:
HEK 293 cells were transfected with the gene coding for the human alpha-1 adrenergic receptor (hα1). [3H]prasozin binding (0.02 to 2 nM) is performed in the presence of 5 to 10 μg of membrane proteins in a medium containing 0.5 mM of EDTA and 50 mM of Tris-HCl pH 7.4; incubation of 60 minutes at ambient temperature is necessary. Non-specific binding is estimated in the presence of 10 μM of phentolamine. Non-transfected cells have absolutely no binding activity.

T1 sequence (P35462 whole entry): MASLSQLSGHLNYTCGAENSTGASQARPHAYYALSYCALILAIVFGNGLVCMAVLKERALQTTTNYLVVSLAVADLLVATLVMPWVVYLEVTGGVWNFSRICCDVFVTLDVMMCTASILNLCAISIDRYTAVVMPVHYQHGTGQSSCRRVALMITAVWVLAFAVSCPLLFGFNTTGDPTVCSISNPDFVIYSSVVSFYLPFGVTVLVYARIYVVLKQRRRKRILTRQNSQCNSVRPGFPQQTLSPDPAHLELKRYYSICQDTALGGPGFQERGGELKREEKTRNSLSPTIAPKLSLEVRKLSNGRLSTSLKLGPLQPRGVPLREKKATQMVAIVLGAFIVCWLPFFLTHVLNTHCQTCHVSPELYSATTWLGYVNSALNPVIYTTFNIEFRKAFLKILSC

By Ki is commonly meant the equilibrium dissociation constant of an inhibitor or competing ligand from its target. Low values mean tighter binding, high ones weaker binding. For the compound `FC(F)(F)c1cccc(N2CCN(CCCCNc3cc(-c4ccccc4)ccn3)CC2)c1` [Example 4, 2-{4-[4-(3-trifluoromethyl-phenyl)piperazin-1-yl]butyl}amino-4-phenylpyridine dihydrochloride], the Ki in test [1] was 0.76 nM; in test [2], 162 nM.

`Clc1cccc(N2CCN(CCCCNc3cc(-c4ccccc4)ccn3)CC2)c1Cl` [Example 6, 2-{4-[4-(2,3-dichlorophenyl)piperazin-1-yl]butyl}amino-4-phenylpyridine]: the Ki came to 0.55 nM in test [1] and 136 nM in test [2].
